From the supplement of paper PMC12205070

Key:
Experiment in all cases: normalised number of viable cells after treatment (fraction of control); higher = more viable cells (less drug effect)
[1] = system: P10 Relapse (T-ALL xenograft cells from relapse)
Experimental: (§1)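 T-ALL PDX-derived cells (initial diagnosis or relapse samples of individual patients) co-cultured on hTERT-immortalized bone marrow MSCs in 384-well plates were treated with Cytarabine, Venetoclax, S-63845, A1331852 or FX1 (0.1 nM to 10,000 nM) for 72 h.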

[2] = system: P1 Relapse (T-ALL xenograft cells from relapse)
Experimental: as §1

[3] = system: P2 Initial (T-ALL xenograft cells from diagnosis)
Experimental: as §1

[4] = system: P8 Initial (T-ALL xenograft cells from diagnosis)
Experimental: as §1

[5] = system: P2 Relapse (T-ALL xenograft cells from relapse)
Experimental: as §1

[6] = system: P12 Relapse (T-ALL xenograft cells from relapse)
Experimental: as §1

[7] = system: P12 Initial (T-ALL xenograft cells from diagnosis)
Experimental: as §1

[8] = system: P6 Initial (T-ALL xenograft cells from diagnosis)
Experimental: as §1

[9] = system: P8 Relapse (T-ALL xenograft cells from relapse)
Experimental: as §1

[10] = system: P10 Initial (T-ALL xenograft cells from diagnosis)
Experimental: as §1

[11] = system: P6 Relapse (T-ALL xenograft cells from relapse)
Experimental: as §1

[12] = system: P1 Initial (T-ALL xenograft cells from diagnosis)
Experimental: as §1

Cc1c(-c2c(-c3ccc(F)o3)sc3ncnc(O[C@H](Cc4ccccc4OCc4ccnn4CC(F)(F)F)C(=O)O)c23)ccc(OCCN2CCN(C)CC2)c1Cl
normalised number of viable cells
Settings | 0.125 nM | 0.13 nM | 1 nM | 1.25 nM | 12.5 nM | 31.25 nM | 100 nM | 625 nM | 1250 nM | 10000 nM
[1] | – | 1.02 | – | 1.15 | – | 1.08 | – | 0.785 | – | 0.0695
[2] | – | 1.26 | – | 1.15 | – | 0.987 | – | 0.131 | – | 0.039
[3] | – | 0.99 | – | 0.918 | – | 0.86 | – | 0.197 | – | 0.129
[4] | – | 1.09 | – | 1.08 | – | 1.04 | – | 0.54 | – | 0.0315
[5] | – | 1.05 | – | 1.04 | – | 0.878 | – | 0.7035 | – | 0.068
[6] | – | 0.277 | – | 1.52 | – | 0.199 | – | 0.048 | – | 0.0695
[7] | – | 1.05 | – | 0.991 | – | 0.58 | – | 0.337 | – | 0.0575
[8] | – | 1.02 | – | 1.08 | – | 0.638 | – | 0.0605 | – | 0.022
[9] | – | 0.992 | – | 1.05 | – | 1.02 | – | 0.9355 | – | 0.0655
[10] | – | 1.29 | – | 1.17 | – | 0.639 | – | 0.225 | – | 0.0835
[11] | – | 1.07 | – | 0.884 | – | 1.02 | – | 0.483 | – | 0.035
[12] | 1.16 | – | 1.05 | – | 0.838 | – | 0.231 | – | 0.054 | 0.0485

Cc1c(-c2ccc(N3CCc4cccc(C(=O)Nc5nc6ccccc6s5)c4C3)nc2C(=O)O)cnn1CC12CC3CC(CC(C3)C1)C2
normalised number of viable cells
Settings | 0.125 nM | 0.13 nM | 1 nM | 1.25 nM | 12.5 nM | 31.25 nM | 100 nM | 625 nM | 1250 nM | 10000 nM
[1] | – | 0.98 | – | 0.69 | – | 0.547 | – | 0.341 | – | 0.149
[2] | – | 1.092 | – | 1 | – | 0.758 | – | 0.443 | – | 0.104
[3] | – | 0.972 | – | 0.785 | – | 0.5015 | – | 0.407 | – | 0.2125
[4] | – | 1.17 | – | 0.883 | – | 0.704 | – | 0.673 | – | 0.4885
[5] | – | 0.839 | – | 0.588 | – | 0.115 | – | 0.0705 | – | 0.0555
[6] | – | 2.48 | – | 0.433 | – | 0.132 | – | 0.075 | – | 0.0555
[7] | – | 0.976 | – | 0.093 | – | 0.151 | – | 0.084 | – | 0.054
[8] | – | 0.809 | – | 0.331 | – | 0.037 | – | 0.023 | – | 0.0205
[9] | – | 0.838 | – | 0.861 | – | 0.721 | – | 0.515 | – | 0.321
[10] | – | 0.894 | – | 0.32 | – | 0.163 | – | 0.0735 | – | 0.031
[11] | – | 0.953 | – | 0.907 | – | 0.827 | – | 0.883 | – | 0.834
[12] | 1.07 | – | 0.741 | – | 0.429 | – | 0.38 | – | 0.172 | 0.0585
